Results taken from ChEMBL document CHEMBL3045392, “Synthesis and fungicidal evaluation of some new anilinopyrimidine derivatives” (2013).

Legend:
Type in all cases: functional
Aspergillus niger [1] = test: Fungicidal activity against Aspergillus niger assessed as growth inhibition at 100 ug/ml after 7 days; details: 168 h, read-out: IZ
Aspergillus niger [2] = test: Fungicidal activity against Aspergillus niger assessed as growth inhibition at 10 ug/ml after 7 days; details: 168 h, read-out: IZ
Aspergillus niger [3] = test: Fungicidal activity against Aspergillus niger assessed as growth inhibition at 1000 ug/ml after 7 days; details: 168 h, read-out: IZ
Aspergillus niger [4] = test: Fungicidal activity against Aspergillus niger assessed as growth inhibition at 50 ug/ml after 7 days; details: 168 h, read-out: IZ
Aspergillus niger [5] = test: Fungicidal activity against Aspergillus niger assessed as time required for hyphae to burst at 7.5 ug/ml
Aspergillus niger [6] = test: Fungicidal activity against Aspergillus niger assessed as time required for hyphae to burst at 2.5 ug/ml
Aspergillus niger [7] = test: Fungicidal activity against Aspergillus niger assessed as time required for hyphae to burst at 10 ug/ml
Aspergillus niger [8] = test: Fungicidal activity against Aspergillus niger assessed as time required for hyphae to burst at 5 ug/ml

SMILES	zone of inhibition at 100 µg/mL (Aspergillus niger [1])	zone of inhibition at 10 µg/mL (Aspergillus niger [2])	zone of inhibition at 1000 µg/mL (Aspergillus niger [3])	zone of inhibition at 50 µg/mL (Aspergillus niger [4])	Time (Aspergillus niger [5])	Time (Aspergillus niger [6])	Time (Aspergillus niger [7])	Time (Aspergillus niger [8])
Cc1nc(Nc2ccccc2)nc2c1C(=N)C(C#N)CN(C(=O)c1ccccc1)C2 (configuration not stated)	1.33 mm	1 mm	2.1 mm	1.02 mm				
Cc1cc(CBr)nc(Nc2ccccc2)n1	2 mm	1.5 mm	2.2 mm	1.9 mm				
Cc1nc(Nc2ccccc2)nc(C)c1Br	2.5 mm	1.6 mm	2.9 mm	2.1 mm				
Cc1nc(Nc2ccccc2)nc(C)c1C#N	1.9 mm	1.4 mm	2.5 mm	1.7 mm				
CC(=O)N(c1ccccc1)c1nc(C)cc(C)n1 [N-ACETYL PYRIMETHANIL]	2.7 mm	2.1 mm	3.4 mm	2.4 mm	32 s	9 s	51 s	18 s
Cc1cc(C)nc(Nc2ccccc2)n1 [PYRIMETHANIL]	3.2 mm	2.6 mm	4 mm	2.9 mm	39 s	12 s	56 s	21 s
